Source: US20180071284A1, “PREVENTING OR TREATING VIRAL INFECTION BY INHIBITION OF THE HISTONE METHYLTRANSFERASE EZH1 OR EZH2” (The United States of America, as represented by the …, priority 2015, published 2018)

What was measured:
HSV-1 [1] = experiment: UL29+ single neurons and neuron clusters in explanted trigeminal ganglia; assay type: cell-based, herpes simplex virus 1 (HSV-1); settings: explant 48-hrs; compound 1 35 μM, compound 4 30 μM, ACV 100 μM, ML324 50 μM
Excerpt: (§1) Trigeminal ganglia were fixed in paraformaldehyde and tissue sections were contained with anti-UL29 and DAPI. The HSV E gene UL29 (DNA single strand binding replication protein) was used a marker for viral reactivation. Tissue sections were scored for UL29+ cell clusters (clusters indicate viral spread from the primary neuron to surrounding cells) and for individual neurons representing the primary reactivation event (single) (FIGS. 18 and 19).
as §1, with “costained” for “contained”, “(FIG. 25).” for “(FIGS. 18 and 19).”

[2] = system: cytokines, chemokines, and adhesion proteins involved in innate signaling; experiment: RNA-seq analysis of explanted trigeminal ganglia from HSV-1 latently infected mice; assay type: cell-based; settings: 30 μM, 12 hrs
Protocol: Trigeminal ganglia from HSV-1 latently infected mice were explanted in media with control DMSO (vehicle) or in media with compound 4 (30 μM) for 12 hrs. Total cellular RNA was isolated and RNA-seq analysis identified the induction of cytokines, chemokines, and adhesion proteins involved in innate signaling and recruitment of immune effector cells. The results are in Table 1 below, where changes in gene expression are expressed as ratios of compound 4 relative to vehicle.

neutrophil (Ly6G) = experiment: Neutrophil recruitment to the site of HSV infection in mouse eyes; assay type: in vivo, Balb/c mice; settings: topical to the eyes, 30 μM twice daily, day 5
Protocol: The eyes of Balb/c mice were scarified and mock or infected with 2×10^5 pfu of HSV-1 (strain F) per eye. Beginning on day 0.5, the eyes of mice were treated either with EZH1/2 inhibitor (compound 4: 30 μM), acyclovir (ACV: 30 μM), or vehicle control twice daily. On day 5, the eyes were fixed in paraformaldehyde and tissue sections were co-stained with anti-HSV-1, anti-Ly6G (neutrophil), and DAPI.

HSV-1 [3] = experiment: Removal of inhibitors prior to HSV-1 infection of HFF cells (mRNA levels); assay type: cell-based, herpes simplex virus 1 (HSV-1); settings: washed, then infected
Protocol: HFF cells were treated with inhibitors targeting the catalytic SET domain (compound 1, 35 μM: EZH2; compound 2, 15 μM: EZH2 and EZH1; compound 4, 30 μM: EZH2), EED-EZH2 and EED-EZH1 (compound 3, 30 μM), or DMSO (control) for 5-hrs. Cells were then washed with phosphate buffered saline (PBS) and replaced with media with no inhibitors for the indicated time in FIGS. 21-24 prior to infection with HSV-1 (2.0 PFU per cell) for 1.5-hrs in the absence of inhibitors.

Zika virus (ZIKV) = experiment: Zika virus infection of HFF cells (focus forming units, percent infected cells); assay type: cell-based
Protocol: FIG. 32 presents line graphs that show the number and size of Focus Forming Units (FFU) after HFF cells were treated with the indicated concentrations of compound 4 for 5 h and infected with ZIKV for 40 h, in accordance with embodiments of the invention.
HFF cells were treated with compound 4 and infected with Zika virus (ZIKV), a member of the flavivirus family.
To determine if pretreatment was required to suppress ZIKV infection, cells were pretreated with compound 4 or were treated 3 h post ZIKV adsorption. While pretreatment was modestly more efficient at suppression of infection at lower compound 4 concentrations, it was not essential to effect significant suppression (FIG. 34).

[4] = HFF cells treated 5 h, infected with ZIKV for 40 h, dose-dependent

CC[C@H](C)n1cc(C)c2c(C(=O)NCc3c(C)cc(C)[nH]c3=O)cc(-c3ccc(N4CCNCC4)nc3)cc21 [compound 4, GSK126]
primary reactivation (UL29+ single neurons) (HSV-1 [1]): reduced | secondary spread of HSV (UL29+ neuron clusters) (HSV-1 [1]): reduced | genes induced >2 fold that are co-regulated by IFN (Interferome), ganglia explants [2]: 33 genes | share of genes induced >2 fold that are co-regulated by IFN (Interferome), ganglia explants [2]: 69% | Fold Change (Cmpd. 4 relative to vehicle) ([2]; Gene CCL2 (Chemokines)): 2.23 | Fold Change (Cmpd. 4 relative to vehicle) ([2]; Gene CXCL1 (Chemokines)): 6.30 | Fold Change (Cmpd. 4 relative to vehicle) ([2]; Gene CXCL2 (Chemokines)): 5.11 | Fold Change (Cmpd. 4 relative to vehicle) ([2]; Gene CXCL3 (Chemokines)): 2.68 | Fold Change (Cmpd. 4 relative to vehicle) ([2]; Gene CXCL5 (Chemokines)): 3.78 | Fold Change (Cmpd. 4 relative to vehicle) ([2]; Gene G-CSF (Cytokines)): 6.16 | Fold Change (Cmpd. 4 relative to vehicle) ([2]; Gene GM-CSF (Cytokines)): 5.51 | Fold Change (Cmpd. 4 relative to vehicle) ([2]; Gene ICAM1 (Adhesion)): 2.51 | Fold Change (Cmpd. 4 relative to vehicle) ([2]; Gene IL6 (Cytokines)): 3.61 | Fold Change (Cmpd. 4 relative to vehicle) ([2]; Gene IL11 (Cytokines)): 2.16 | Fold Change (Cmpd. 4 relative to vehicle) ([2]; Gene LIF (Cytokines)): 2.66 | Fold Change (Cmpd. 4 relative to vehicle) ([2]; Gene SELE (Adhesion)): 3.86 | Fold Change (Cmpd. 4 relative to vehicle) ([2]; Gene SELP (Adhesion)): 3.16 | Fold Change (Cmpd. 4 relative to vehicle) ([2]; Gene VEGF-c (Cytokines)): 2.10 | neutrophil recruitment to the site of HSV infection (neutrophil (Ly6G)): Recruitment/infiltration of neutrophils | HSV IE expression after removal of compound prior to infection (HSV-1 [3]; 5-hrs treatment (compound 1 35 μM, 2 15 μM, 3 30 μM, 4 30 μM)): recovery of HSV IE expression | IL6 stimulation after removal of compound prior to infection (HSV-1 [3]; 5-hrs treatment): decrease in IL6 stimulation | number of ZIKV infected cells (intracellular staining for ZIKV antigens) (Zika virus (ZIKV); 1 and 2 dpi): reduction | number of ZIKV focus forming units (plaques) (Zika virus (ZIKV); [4]): significantly reduced | size of ZIKV focus forming units (plaques) (Zika virus (ZIKV); [4]): significantly reduced | requirement of pretreatment for suppression of ZIKV infection (Zika virus (ZIKV); pretreated vs treated 3 h post ZIKV adsorption): not essential
